“And” between values parts separate entries of the source, which are not always exact repeats. Identical values can stand only once.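 These data come from cells grown in 96-well plates and exposed to compound for 48 hours at five concentrations. GI50 = concentration required for 50% inhibition of growth.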 The source made the active and inactive calls. Rule as the data show it: active = GI50 up to about 1.1 µM and inactive = higher.
Assays:
Experiment in all cases: inhibition of tumour cell growth, NCI panel, 48 h
786-0 = system: 786-0
A498 = system: A498
A549 = system: A549
ACHN = system: ACHN
BT-549 = system: BT-549
CAKI-1 = system: CAKI-1
CCRF-CEM = system: CCRF-CEM
COLO 205 = system: COLO 205
DU-145 = system: DU-145
EKVX = system: EKVX
HCC 2998 = system: HCC 2998
HCT-116 = system: HCT-116
HCT-15 = system: HCT-15
HL-60 = system: HL-60
HOP-62 = system: HOP-62
HOP-92 = system: HOP-92
HT-29 = system: HT-29
Hs-578T = system: Hs-578T
IGROV-1 = system: IGROV-1
K562 = system: K562
KM12 = system: KM12
LOX IMVI = system: LOX IMVI
M14 = system: M14
MCF7 = system: MCF7
MDA-MB-231 = system: MDA-MB-231
MDA-MB-435 = system: MDA-MB-435
MDA-N = system: MDA-N
MOLT-4 = system: MOLT-4
Malme-3M = system: Malme-3M
NCI-H226 = system: NCI-H226
NCI-H23 = system: NCI-H23
NCI-H460 = system: NCI-H460
NCI-H522 = system: NCI-H522
NCI/ADR-RES = system: NCI/ADR-RES
OVCAR-3 = system: OVCAR-3
OVCAR-4 = system: OVCAR-4
OVCAR-5 = system: OVCAR-5
OVCAR-8 = system: OVCAR-8
PC-3 = system: PC-3
RPMI-8226 = system: RPMI-8226
RXF 393 = system: RXF 393
SF-268 = system: SF-268
SF-295 = system: SF-295
SF-539 = system: SF-539
SK-MEL-28 = system: SK-MEL-28
SK-MEL-2 = system: SK-MEL-2
SK-MEL-5 = system: SK-MEL-5
SK-OV-3 = system: SK-OV-3
SN12C = system: SN12C
SNB-19 = system: SNB-19
SNB-75 = system: SNB-75
SR = system: SR
SW-620 = system: SW-620
T47D = system: T47D
TK-10 = system: TK-10
U-251 = system: U-251
UACC-257 = system: UACC-257
UACC-62 = system: UACC-62
UO-31 = system: UO-31

CC(=O)Oc1ccc2c(C)cc(=O)oc2c1
GI50 (786-0): > 100 µM (inactive)
GI50 (A498): > 100 µM (inactive)
GI50 (A549): > 100 µM (inactive)
GI50 (ACHN): > 100 µM (inactive)
GI50 (BT-549): > 100 µM (inactive)
GI50 (CAKI-1): > 100 µM (inactive)
GI50 (CCRF-CEM): > 100 µM (inactive)
GI50 (COLO 205): > 100 µM (inactive)
GI50 (DU-145): > 100 µM (inactive)
GI50 (EKVX): > 100 µM (inactive)
GI50 (HCC 2998): > 100 µM (inactive)
GI50 (HCT-116): > 100 µM (inactive)
GI50 (HCT-15): > 100 µM
GI50 (HL-60): > 100 µM (inactive)
GI50 (HOP-62): > 100 µM (inactive)
GI50 (HOP-92): > 100 µM (inactive)
GI50 (HT-29): > 100 µM (inactive)
GI50 (Hs-578T): > 100 µM (inactive)
GI50 (IGROV-1): > 100 µM (inactive)
GI50 (K562): > 100 µM (inactive)
GI50 (KM12): > 100 µM (inactive)
GI50 (LOX IMVI): > 100 µM (inactive)
GI50 (M14): > 100 µM (inactive)
GI50 (MCF7): > 100 µM (inactive)
GI50 (MDA-MB-231): > 100 µM (inactive)
GI50 (MDA-MB-435): > 100 µM (inactive)
GI50 (MDA-N): > 100 µM (inactive)
GI50 (MOLT-4): > 100 µM (inactive)
GI50 (Malme-3M): > 100 µM (inactive)
GI50 (NCI-H226): > 100 µM (inactive)
GI50 (NCI-H23): > 100 µM (inactive)
GI50 (NCI-H460): > 100 µM (inactive)
GI50 (NCI-H522): > 100 µM (inactive)
GI50 (NCI/ADR-RES): > 100 µM (inactive)
GI50 (OVCAR-3): > 100 µM (inactive)
GI50 (OVCAR-4): > 100 µM (inactive)
GI50 (OVCAR-5): > 100 µM (inactive)
GI50 (OVCAR-8): > 100 µM (inactive)
GI50 (PC-3): > 100 µM (inactive)
GI50 (RPMI-8226): > 100 µM (inactive)
GI50 (RXF 393): > 100 µM (inactive)
GI50 (SF-268): > 100 µM (inactive)
GI50 (SF-295): > 100 µM (inactive)
GI50 (SF-539): > 100 µM (inactive)
GI50 (SK-MEL-28): > 100 µM (inactive)
GI50 (SK-MEL-2): > 100 µM (inactive)
GI50 (SK-MEL-5): > 100 µM (inactive)
GI50 (SK-OV-3): > 100 µM (inactive)
GI50 (SN12C): > 100 µM (inactive)
GI50 (SNB-19): > 100 µM (inactive)
GI50 (SNB-75): > 100 µM (inactive)
GI50 (SR): > 100 µM (inactive)
GI50 (SW-620): > 100 µM (inactive)
GI50 (T47D): > 100 µM (inactive) and 61.7 µM (inactive)
GI50 (TK-10): > 100 µM (inactive)
GI50 (U-251): > 100 µM (inactive)
GI50 (UACC-257): > 100 µM (inactive)
GI50 (UACC-62): > 100 µM (inactive)
GI50 (UO-31): > 100 µM (inactive)

From ChEMBL document CHEMBL1201862, “PubChem BioAssay data set” (2004)
